Source: paper PMC4573970, “Further validation to support clinical translation of [^18F]FTC-146 for imaging sigma-1 receptors” (EJNMMI Research, 2015)

Tests used:
sigma-1 receptor (S1R) = target: T1, sigma-1 receptor (S1R) (Mus musculus, UniProt O55242); assay: in vivo PET blocking of […]FTC-146 ([…] mg/kg), with S1R-KO control; assay type: cell-based
T1 construct: gene Sigmar1; native receptor in WT mouse brain

[1] = target: T2, vesicular acetylcholine transporter (VAChT) (Homo sapiens, UniProt Q16572)
T2 construct: gene SLC18A3
T2 sequence (Q16572 1-532): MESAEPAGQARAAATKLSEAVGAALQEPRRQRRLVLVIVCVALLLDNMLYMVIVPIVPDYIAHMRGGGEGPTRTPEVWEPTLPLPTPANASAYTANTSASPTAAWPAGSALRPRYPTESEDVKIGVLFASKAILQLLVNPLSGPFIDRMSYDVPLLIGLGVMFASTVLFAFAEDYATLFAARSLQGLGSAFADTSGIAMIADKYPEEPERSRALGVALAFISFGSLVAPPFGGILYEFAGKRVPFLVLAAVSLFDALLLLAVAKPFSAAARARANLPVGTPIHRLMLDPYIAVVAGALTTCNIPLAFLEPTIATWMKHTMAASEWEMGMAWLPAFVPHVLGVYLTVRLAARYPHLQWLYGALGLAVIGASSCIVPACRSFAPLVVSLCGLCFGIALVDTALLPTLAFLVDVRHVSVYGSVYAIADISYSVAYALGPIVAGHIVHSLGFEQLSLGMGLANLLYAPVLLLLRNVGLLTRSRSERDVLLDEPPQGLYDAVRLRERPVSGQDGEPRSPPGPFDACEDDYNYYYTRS

T1 sequence (O55242 whole entry): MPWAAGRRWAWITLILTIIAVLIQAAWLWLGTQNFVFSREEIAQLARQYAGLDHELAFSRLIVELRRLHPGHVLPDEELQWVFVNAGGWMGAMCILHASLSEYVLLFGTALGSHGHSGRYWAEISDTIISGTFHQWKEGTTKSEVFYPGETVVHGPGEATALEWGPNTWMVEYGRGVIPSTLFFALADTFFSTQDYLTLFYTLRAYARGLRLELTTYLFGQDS

Row | SMILES | in vivo PET blocking of [18F]FTC-146 (1 mg/kg), with S1R-KO control (sigma-1 receptor (S1R)) | Ki [1]
1 | CN(C)CCN(C)CCc1ccc(Cl)c(Cl)c1 [BD1047] | following receptor blocking with a known S1R antagonist (BD-1047), showed similarly rapid washout of tracer | 
2 | O=c1sc2cc(CCCF)ccc2n1CCN1CCCCCC1 [FTC-146] |  | 450 ± 80 nM
